Results: patent US5225436A, “Aryl substituted naphthalene derivatives” (Schering Corporation, priority 1991, dated 1993)
Read-outs that look alike come from different tables or passages of the source.

How the values were obtained:
[1] = system: SRS-A / leukotriene release from antigen-challenged, sensitized guinea pig lung; test: Inhibition of SRS-A (leukotriene) release from antigen-challenged, sensitized guinea pig lung; format: cell-based; design: inhibition: dose or concentration left out as unconfirmed; settings: Cavia porcellus; for inhibition: Dose 30 μm (μM)
Description: The anti-allergy method of this invention is identified by tests which measure a compound's inhibition of leukotriene release in sensitized guinea pigs. Sensitized guinea pigs are killed by a blow to the head and the lungs removed and cleaned of visible connective tissue, trachea and large blood vessels. The lungs from individual animals are sliced into fragments approximately 1 mm in thickness using a McIlwain tissue chopper and then washed with oxygenated Tyrode's buffer. Weighed aliquots (approximately 400 mg wet weight) of lung are transferred into vials containing 2 ml of fresh Tyrode's solution (containing 10 mM cysteine) and incubated in the presence or absence of test compound for 12 min at 37° C. The tissues are then challenged with 20 μg ovalbumin/ml (final concentration) and incubated for 15 min. To measure leukotriene release, an aliquot of supernatant fluid is extracted with 4 volumes of 100% ethanol. After removal of the precipitated protein, the clear fluid is dried under a stream of N2 gas. The leukotriene content is measured by a radioimmunoassay using [^3 H]LTC4 and antiserum obtained from New England Nuclear. The cross-reactivity of the antiserum for LTD4 is 55%. Percent inhibition of lekotriene release is calculated by comparing for each lung the release in the presence of the test compound to that in the absence of test compound. Representative compounds of the invention at a relative dose of 50 μM of tissue are found to inhibit leukotriene release in the test procedure as indicated below in Table 1: […]

[2] = molecular target: T1, 5-lipoxygenase (Homo sapiens, UniProt P09917); test: 5-Lipoxygenase assay with human neutrophils; format: cell-based; settings: 5 min, Human PMN, dose 15 μm (μM)
T1 construct: Human polymorphonuclear leukocytes (neutrophils) were obtained from normal healthy volunteers; endogenous in cells; host or cells: human blood neutrophils from healthy volunteers
T1 sequence (P09917 1-674): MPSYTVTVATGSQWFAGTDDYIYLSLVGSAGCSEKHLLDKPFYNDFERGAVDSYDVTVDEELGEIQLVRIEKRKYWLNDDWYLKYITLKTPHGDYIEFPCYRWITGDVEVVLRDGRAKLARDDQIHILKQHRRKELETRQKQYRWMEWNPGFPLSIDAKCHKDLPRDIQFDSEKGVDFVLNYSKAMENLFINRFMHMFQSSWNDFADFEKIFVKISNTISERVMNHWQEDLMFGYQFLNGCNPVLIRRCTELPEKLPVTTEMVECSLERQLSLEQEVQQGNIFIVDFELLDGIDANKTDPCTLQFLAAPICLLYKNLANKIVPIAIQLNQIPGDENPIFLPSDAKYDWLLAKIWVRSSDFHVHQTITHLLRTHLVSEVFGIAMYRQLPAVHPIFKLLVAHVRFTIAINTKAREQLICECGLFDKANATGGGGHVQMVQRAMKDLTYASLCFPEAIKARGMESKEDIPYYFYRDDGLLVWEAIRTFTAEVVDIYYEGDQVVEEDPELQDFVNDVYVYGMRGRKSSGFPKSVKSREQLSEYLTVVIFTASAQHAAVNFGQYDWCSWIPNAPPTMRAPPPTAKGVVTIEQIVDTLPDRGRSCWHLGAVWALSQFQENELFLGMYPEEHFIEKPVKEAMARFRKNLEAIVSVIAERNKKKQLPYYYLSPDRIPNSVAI
Procedure: Human polymorphonuclear leukocytes (neutrophils) were obtained from normal healthy volunteers by venipuncture and collected with heparin anticoagulant. Neutrophils were isolated by Dextran/Ficol sedimentation as described (Billah et al., J. Biol. Chem. 260, 6899-6906 (1985)). In brief, 30 ml of blood was mixed with 5 ml of dextran (Sigma) solution and kept at 37° C. for 30 min. The upper white cell-rich layer was removed and 10 ml was layered on 9 ml of Ficol-Paque solution (Pharmacia) and centrifuged at 280 xg for 10 min. at 5° C. The supernatant was removed and the neutrophil pellet was resuspended in HEPES buffer containing 25 mM N-2-hydroxyethylpiperazine-N^1 -2-ethanesulfonic acid HEPES, 125 mM NaCl, 2.5 mM KCl, 0.7 mM MgCl2, […] 10 mM glucose at pH 7.4. The red cells in the suspension were lysed by hypotonic shock. The neutrophils were washed by centrifugation in HEPES buffer two times and finally resuspended at a concentration of 20×10^6 cells/ml in the presence of 1 mM CaCl2.
Neutrophils (0.2 ml of suspension) were preincubated with dimethylsulfoxide (DMSO) vehicle with or without test compound (1 ul) for 4 minutes then incubated for 5 minutes with [^14 C] arachidonic acid (Amersham, 59 Ci/mole) at a 9 uM final concentration, and the calcium ionophore A23187 (Calbiochem) at a 1 uM final concentration. These stimulants were added in 10 ul of water:ethanol (9:1). The reaction was stopped by addition of methanol (0.4 ml), and cellular debris was removed by centrifugation. Aliquots (100 ul) of the incubations were run on a Waters two pump HPLC system fitted with a DuPont Zorbax ODS, 5u, […] Reliance Cartridge column and C18 "Guard Pak". The column was initially eluted at 2 ml/min with 80% of the mixture water:methanol:acetic acid (46:54:0.08) containing 1 mM EDTA adjusted to pH 6.0 with ammonium hydroxide (Pump A) and 20% methanol (Pump B). At 10 minutes, a linear gradient to reach 100% methanol (Pump B) at 27 minutes was established. Between 27 and 28 minutes, methanol was exchanged for the initial eluting solvent and by 35 minutes the column had been reequilibrated for the next sample. The effluent was analyzed by a continuous flow radioactivity monitor (model ROMONA-D) interfaced with a Hewlett Packard Lab Automation System for quantitation of radioactive products. These were predominantly leukotriene B4 (LTB4) which eluted at 7 minutes, and 5-hydroxyeicosatetraenoic acid (5-HETE) which eluted at 20 minutes.

[3] = system: anaphylactic bronchospasm (antigen-induced SRS-A mediated bronchoconstriction); test: Inhibition of anaphylactic bronchospasm in sensitized guinea pigs; format: in vivo, guinea pig; settings: Cavia porcellus, iv, 0.25 h; for inhibition in vivo at 10 mg/kg: Dose 10 mpk, read-out: % Inhibition of anaphylactic bronchospasm; for inhibition in vivo at 3 mg/kg: Dose 3 mpk
Procedure: The anti-allergy method of this invention is identified by tests which measure a compound's inhibition of anaphylactic bronchospams-in sensitized guinea pigs having antigen-induced SRS-A mediated bronchoconstriction. Allergic bronchospams was measured in actively sensitized guinea pigs by a modification of the procedure of Konzett and Rossler, Arch. Exptl. Pathol. Pharmakol., 194, pp. 71-74 (1940). Male Hartley guinea pigs were sensitized with 5 mg ovalbumin injected ip and 5 mg injected sc in 1 ml saline on day 1 and 5 mg ovalbumin injected ip on day 4. The sensitized animals were used 3-4 weeks later. To measure anaphylactic bronchospasm, sensitized guinea pigs were fasted overnight and the following morning were anesthetized with 0.9 ml/kp ip dialurethane. The trachea and jugular vein were cannulated and the animals were ventilated by a Harvard rodent respirator. A side arm to the tracheal cannula was connected to a Harvard pressure transducer to obtain a continuous measure of intratracheal pressure. An increase in intratracheal pressure was taken as a measure of bronchoconstriction. Each guinea pig was injected iv with 1 mg/kg propranolol, 5 mg/kg indomethacin and 2 mg/kg mepyramine given together in a volume of […]. Fifteen minutes later, the animals were challenged with antigen (0.5 percent ovalbumin) delivered as an aerosol generated from a DeVilbiss Model 65 ultrasonic nebulizer and delivered through the tracheal cannula for 30 seconds. Bronchoconstriction was measured as the peak increase in intratracheal pressure occurring within 15 minutes after antigen challenge.

inhibition at 15 µM ([2]; read-out: % Inhibition 5-HETE) [%] | inhibition at 15 µM ([2]; read-out: % Inhibition LTB) [%] | Compound | inhibition [1] [%] | inhibition in vivo at 10 mg/kg [3] [%] | inhibition at 10 µM [1] [%] | inhibition in vivo at 3 mg/kg [3] [%]
9 |  | COc1cc(OC)c2c(c1)C(C)(C)C(c1ccc(OC)c(OC)c1)CC(=O)O2 (stereo not drawn) [drawing 89 [X=O; R3/R4=O; P=OCH3]] | 59 | 4 |  | 
2 | 0 | COc1cc(OC)c2c(c1)C(C)(C)C(c1ccc(OC)c(OC)c1)CC2=NNC(N)=O (stereo not drawn) |  | 20 | 1 | 
0 | 9 | COc1cc(OC)c2c(c1)C(C)(C)C(c1ccc(OC)c(OC)c1)=CC2=NO | 0 | 0 |  | 
1 | 0 | COc1cc(OC)c2c(c1)C(C)(C)C(c1ccc(OC)c(OC)c1)=C(C)C2=O |  | 24 | 20 | 
0 | 2 | COc1cc(OC)c2c(c1)C(C)(C)C(c1ccc(OC)c(OC)c1)CC(=O)N2 (stereo not drawn) [drawing 89 [X=NH; R3/R4=O; P=OCH3]] | 65 |  |  | 20
87 | 97 | COc1cc(OC)c2c(c1)C(C)(C)C(c1ccc(OC)c(OC)c1)CC(=O)C2 (stereo not drawn) [drawing 89 [X=CH2; R3/R4=O; P=OCH3]] | 47 | 0 |  | 
73 |  | COc1ccc2c(c1)C(C)(C)C(c1ccc(OC)c(OC)c1)CCN2 (stereo not drawn) [drawing 89 [X=NH; R3/R4=H,H; P=H]] | 57 | 42 |  | 
51 | 45 | COc1cc(OC)c2c(c1)C(C)(C)C(c1ccc(OC)c(OC)c1)CCC2=O (stereo not drawn) [drawing 90 [X=O; W=H; J=H]] | 78 | 56 |  | 
87 |  | COc1cc(OC)c2c(c1)C(C)(C)C(c1ccc(OC)c(OC)c1)CC(=NO)C2 (stereo not drawn) [drawing 89 [X=CH2; R3/R4=NOH; P=OCH3]] | 46 |  |  | 0
39 | 63 | COc1cc(OC)c2c(c1)C(C)(C)C(c1ccc(OC)c(OC)c1)CCN2 (stereo not drawn) [drawing 89 [X=NH; R3/R4=H,H; P=OCH3]] | 45 | 34 |  | 
28 |  | COc1cc(OC)c2c(c1)C(C)(C)C(c1ccc(OC)c(OC)c1)CC(C)C2=O (stereo not drawn) [drawing 90 [X=O; W=H; J=CH3]] | 61 | 53 |  | 
2 |  | COc1cc(OC)c2c(c1)C(C)(C)C(c1ccc(OC)c(OC)c1)CCC2=NO (stereo not drawn) [drawing 90 [X=NOH; W=H; J=H]] | 58 | 10 |  | 

Compound | inhibition at 15 µM ([2]; read-out: % Inhibition 5-HETE) [%] | inhibition at 15 µM ([2]; read-out: % Inhibition LTB) [%] | inhibition [1] [%] | inhibition in vivo at 10 mg/kg [3] [%] | inhibition at 10 µM [1] [%] | inhibition in vivo at 3 mg/kg [3] [%]
COc1cc(O)c2c(c1)C(C)(C)C(c1ccc(OC)c(OC)c1)CC2=NO (stereo not drawn) | 42 |  |  | 0 |  | 
